What was measured:
MCF7 = test: Cytotoxicity against human MCF7 cells; format: functional; conditions: read-out: ED50 (the source's name)
HT-29 = test: Cytotoxicity against human HT-29 cells; format: functional; conditions: read-out: ED50 (the source's name)
A549 = test: Cytotoxicity against human A549 cells; format: functional; conditions: read-out: ED50 (the source's name)
Artemia = test: Toxicity in brine shrimp; format: organism-based; conditions: in vivo

## CCCCCCCCCCCCCCCC(=O)O[C@H]1CC[C@]2(C)[C@H]3CC=C4[C@@H]5CC(C)(C)CC[C@]5(CO)[C@@H](O)C[C@@]4(C)[C@]3(C)CC[C@H]2C1(C)C
MCF7
  EC50: > 10 µg/mL
HT-29
  EC50: > 10 µg/mL
A549
  EC50: > 10 µg/mL
Artemia
  LC50: > 1000 ppm

From ChEMBL document CHEMBL1147282, “3 beta-O-palmityl longispinogenin from Trichocereus chilensis” (J Nat Prod, 1989)
